Measured values taken from ChEMBL document CHEMBL1201862, “PubChem BioAssay data set” (2004).
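96-well plates; 48 h exposure; 5 concentrations. Endpoints by linear interpolation between flanking doses. Not reached: highest tested concentration assigned. GI50 marks 50% less growth.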 Active and inactive are the calls of the source. Cut-off read from the data, not from the text of the source: active = GI50 up to about 1.1 µM and inactive = higher.

Columns and labels:
Experiment in all cases: growth of human tumour cells (NCI), 48 h
SK-OV-3 = system: SK-OV-3
RXF 393 = system: RXF 393
IGROV-1 = system: IGROV-1
EKVX = system: EKVX
M14 = system: M14
MDA-MB-435 = system: MDA-MB-435
SF-295 = system: SF-295
UACC-257 = system: UACC-257
786-0 = system: 786-0
SK-MEL-28 = system: SK-MEL-28
TK-10 = system: TK-10
Hs-578T = system: Hs-578T
ACHN = system: ACHN
OVCAR-5 = system: OVCAR-5
A549 = system: A549
NCI-H522 = system: NCI-H522
OVCAR-3 = system: OVCAR-3
SR = system: SR
MCF7 = system: MCF7
Malme-3M = system: Malme-3M

Row | Structure (SMILES) | GI50 (SK-OV-3) | GI50 (RXF 393) | GI50 (IGROV-1) | GI50 (EKVX) | GI50 (M14) | GI50 (MDA-MB-435) | GI50 (SF-295) | GI50 (UACC-257) | GI50 (786-0) | GI50 (SK-MEL-28) | GI50 (TK-10) | GI50 (Hs-578T) | GI50 (ACHN) | GI50 (OVCAR-5) | GI50 (A549) | GI50 (NCI-H522) | GI50 (OVCAR-3) | GI50 (SR) | GI50 (MCF7) | GI50 (Malme-3M)
1 | OCCSCc1ccccc1 | > 100 µM (inactive) | > 100 µM (inactive) | > 100 µM (inactive) | > 100 µM (inactive) | > 100 µM (inactive) | > 100 µM (inactive) | > 100 µM (inactive) | > 100 µM (inactive) | > 100 µM (inactive) | > 100 µM (inactive) | > 100 µM (inactive) | > 100 µM (inactive) | > 100 µM (inactive) | > 100 µM (inactive) | > 100 µM (inactive) | > 100 µM (inactive) | > 100 µM (inactive) | > 100 µM (inactive) | > 100 µM (inactive) | > 100 µM (inactive)
2 | Cc1cn([C@H]2C[C@@H](N3C(=O)c4ccccc4C3=O)[C@@H](CO[Si](C)(C)C(C)(C)C)O2)c(=O)[nH]c1=O | 30.1 µM (inactive) | 19.7 µM (inactive) | 55 µM (inactive) | 75.2 µM (inactive) | > 100 µM (inactive) | > 100 µM (inactive) | 37 µM (inactive) | > 100 µM (inactive) | 26.9 µM (inactive) | > 100 µM (inactive) | > 100 µM (inactive) | 21.2 µM (inactive) | 62.7 µM (inactive) | > 100 µM (inactive) | 85.5 µM (inactive) | 50.4 µM (inactive) | > 100 µM (inactive) | 36.7 µM (inactive) | 46 µM (inactive) | 87.3 µM (inactive)
3 | CCCCCCCCCCCCCCCCCCNc1ccn(C2OC(CO)C(OP(=O)(O)OCC(COP(=O)(O)OCC3OC(n4cc(F)c(NCCCCCCCCCCCCCCCCCC)nc4=O)CC3O)OC(=O)CCCCCCCCCCCCCCC)C2O)c(=O)n1 (stereo not given) | > 100 µM (inactive) | > 100 µM (inactive) | > 100 µM (inactive) | > 100 µM (inactive) | > 100 µM (inactive) | > 100 µM (inactive) | > 100 µM (inactive) | > 100 µM (inactive) | > 100 µM (inactive) | > 100 µM (inactive) | > 100 µM (inactive) | > 100 µM (inactive) | > 100 µM (inactive) | > 100 µM (inactive) | > 100 µM (inactive) | > 100 µM (inactive) | > 100 µM (inactive) | > 100 µM (inactive) | > 100 µM (inactive) | > 100 µM (inactive)
4 | Cc1nc(N)nc(N)c1-c1ccc(Cl)c(Cl)c1 [METOPRINE] | 3.48 µM (inactive) | 13.2 µM (inactive) | 2.54 µM (inactive) | 4.47 µM (inactive) | 0.162 µM (active) | 0.356 µM (active) | 0.411 µM (active) | 3.85 µM (inactive) | 0.273 µM (active) | 4.6 µM (inactive) | 9.2 µM (inactive) | 4.72 µM (inactive) | 0.495 µM (active) | 14.2 µM (inactive) | 0.0325 µM (active) | 0.785 µM (active) | 3.75 µM (inactive) | 0.308 µM (active) | 0.826 µM (active) | 2.91 µM (inactive)
